For data set [1], the system named is amyloid-β protein Aβ1-40. As to the kind of experiment: Inhibition of production and/or secretion of Aβ1-40 in IMR-32 cells (EIA of supernatant). The settings on record: test compound 10 μM; human neuroblastoma IMR-32 cells, 24 hours; percentage relative to the control. The format is cell-based. As for the experimental part:
(§1) Compounds of the present invention were tested for an inhibitory activity of the production and/or secretion of amyloid-β protein (references: Science, 264, 1336 (1994) and Biochemistry, 34, 10272 (1995)).
(§2) Human neuroblastoma IMR-32 cells: purchased from American Type Culture Center.
(§3) Standard Aβ1-40 and Aβ1-42: purchased from Bachem Co.
(§4) IMR-32 cells were cultivated in a flask (Falcon, 750 ml) containing 10% FCS/DMEM medium, in an atmosphere of 10% CO2/90% air, at 37° C. to be in confluence. The cultured cells were seeded into a 48-well plate in a density of 2.5×10^5 cells/well, and incubated therein for 3 days under the same conditions as above. Then, the culture medium was removed through suction. […]
(§5) BAN-50 antibody or BNT-77 antibody was used as the primary antibody. […] To determined the Aβ1-42, BC-05 was used as the secondary antibody. […]
(§6) The plate was washed three times with PBS, and 100 μl of an HRP-labeled secondary antibody (BA-27 antibody or BC-o5 antibody labeled with HRP: horseradis peroxidase) as dissolved in a buffer for secondary reaction (20 mM phosphate buffer, pH 7.0; 400 mM NaCl; 2 mM EDTA; 1% BSA) was added thereto. […] Then, using a plate reader (MTP-32 Microplate Reader, by Corona Co.), the sample on the plate was subjected to calorimetric determination (at 450 nm). […]

In data set [2] the test system is amyloid-β protein Aβ1-42. As to the kind of experiment: Inhibition of production and/or secretion of Aβ1-42 in IMR-32 cells (EIA of supernatant). Format: cell-based. The settings on record: test compound 10 μM; human neuroblastoma IMR-32 cells, 24 hours; percentage relative to the control. As for the experimental part: as §1, §2, §3, §4, §5, §6
Data set [3] is described as follows: Penetration in brain. The settings on record: in vivo.

As usually defined, the melting point is the temperature of the solid-liquid transition. `CCCN(CCC)CCc1ccc(OCc2ccc(Cl)cc2Cl)cc1.Cl`: the melting point fell in the range of 122 to 123 °C.
On the same count and under the same terms, the result for `CCCN(CCC)CCc1ccccc1OCc1ccc2ccccc2c1.Cl` reads 146 to 147 °C; that for `CCCN(CCC)CCc1cccc(OCc2ccc(Cl)cc2Cl)c1.Cl`, 76 to 78 °C.
Still for that read-out and setting: the result for `O=C(NCCN1CCCC1)c1ccc(NC(=O)c2ccc(-c3ccccc3)cc2)cc1` [Example 27] reads 241 to 245 °C (dec.).
For the compound `O=C(NCCN1CCCCC1)c1ccc(OCc2ccc(-c3ccccc3)cc2)cc1` [Example 8, 4-(4-Biphenylylmethoxy)-N-(2-piperidinoethyl)benzamide], the “Aβ1-40 (%)” value in data set [1] stood at 39%. In addition, the “Aβ1-42 (%)” value in data set [2] is given as 63%. In data set [3], the penetration in brain result is “excellent penetration in brain”.
As to `O=C(NCCN1CCCCC1)c1ccc(NC(=O)c2ccc(-c3ccccc3)cc2)cc1` [Example 26, N-[4-{[2-(Piperidinoethyl)amino]carbonyl}phenyl](4-biphenylyl)carboxamide], the melting point was 247 to 252 °C (dec.).
Same read-out and setting: the result for `CCCN(CCC)CCc1cccc(OCc2ccc(-c3ccccc3)cc2)c1.Cl` reads 108 to 110 °C.
The same measure, in the same setting: for `CCCN(CCC)CCc1ccc(OCc2ccc3ccccc3c2)cc1.Cl` the value was 113 to 115 °C; for `CCCN(CCC)CCc1ccc(OCc2ccc(-c3ccccc3)cc2)cc1.Cl`, 149 to 150 °C; for `CCCN(CCC)CCc1cccc(OCc2cccc3ccccc23)c1.Cl`, 140 to 142 °C.
The same measure, in the same setting: the result for `CCCN(CCC)CCc1cccc(OCc2ccc3ccccc3c2)c1.Cl` reads 115 to 116 °C.

For the origin of these results see patent US6586475B1, “β-amyloid protein production/secretion inhibitors” (Takeda Chemical Industries, Ltd., priority 1998, dated 2003).
